In ChEMBL document CHEMBL3885861, “Open TG-GATES”:

Organism: Rattus norvegicus
Assay: Open TG-GATES - Regimen: Single
Assay type: toxicity, organism-based, Sprague-Dawley
Set-up: regimen Single, gender Male, age 6 weeks
Conditions: in vivo, po, route gavage; for APTT / Bas / Eos / Fbg / Hb / Ht / Lym / MCH / MCHC / MCV / Mono / Neu / PT / Plat / RBC / Ret / WBC: tissue Blood; for KIDNEY_L / KIDNEY_R / KIDNEY_TOTAL: tissue Kidney; for LIVER: tissue Liver; for A/G / ALP / ALT / AST / BUN / CRE / Ca / Cl / DBIL / GLC / IP / K / LDH / Na / PL / RALB / TBIL / TC / TG / TP / gamma-GTP: tissue Plasma
[1] = 0 mg/kg, 3 h, dose level Control
[2] = 0 mg/kg, 6 h, dose level Control
[3] = 0 mg/kg, 9 h, dose level Control
[4] = 0 mg/kg, 24 h, dose level Control

## CC(C)C(=O)Nc1ccc([N+](=O)[O-])c(C(F)(F)F)c1 [FLUTAMIDE]
[1]
  TERMINAL_BW: 211.8 g
  APTT: 18.5 s
  Bas: 0%
  Eos: 1%
  Fbg: 211.2 mg/dL
  Hb: 13.4 g/dL
  Ht: 39%
  Lym: 77%
  MCH: 22.2 pg
  MCHC: 34.4%
  MCV: 64.5 fL
  Mono: 3.6%
  Neu: 17.4%
  PT: 12.7 s
  Plat: 126.5 x10_4/uL
  RBC: 604.2 x10_4/ul
  Ret: 8.3%
  WBC: 99.3 x10_2/uL
  KIDNEY_L: 1 g
  KIDNEY_R: 1 g
  KIDNEY_TOTAL: 1.9 g
  LIVER: 10 g
  A/G: 1.7
  ALP: 1054 IU/L
  ALT: 39.4 IU/L
  AST: 69.6 IU/L
  BUN: 10.8 mg/dL
  CRE: 0.3 mg/dL
  Ca: 11 mg/dL
  Cl: 103.2 meq/L
  DBIL: 0.3 mg/dL
  GLC: 193.4 mg/dL
  IP: 9.1 mg/dL
  K: 3.9 meq/L
  LDH: 165.4 IU/L
  Na: 140 meq/L
  PL: 176 mg/dL
  RALB: 3.5 g/dL
  TBIL: 0.4 mg/dL
  TC: 83.2 mg/dL
  TG: 186 mg/dL
  TP: 5.5 g/dL
  gamma-GTP: 1.4 IU/L
[2]
  TERMINAL_BW: 207.5 g
  APTT: 18.8 s
  Bas: 0%
  Eos: 0.6%
  Fbg: 228 mg/dL
  Hb: 13.7 g/dL
  Ht: 39.6%
  Lym: 80%
  MCH: 21.9 pg
  MCHC: 34.5%
  MCV: 63.3 fL
  Mono: 3.2%
  Neu: 15%
  PT: 12.5 s
  Plat: 115.8 x10_4/uL
  RBC: 625.8 x10_4/ul
  Ret: 7.2%
  WBC: 108.6 x10_2/uL
  KIDNEY_L: 0.9 g
  KIDNEY_R: 0.9 g
  KIDNEY_TOTAL: 1.9 g
  LIVER: 9 g
  A/G: 1.8
  ALP: 1030.8 IU/L
  ALT: 37.6 IU/L
  AST: 65.8 IU/L
  BUN: 8.4 mg/dL
  CRE: 0.3 mg/dL
  Ca: 10.7 mg/dL
  Cl: 102.6 meq/L
  DBIL: 0.1 mg/dL
  GLC: 193.6 mg/dL
  IP: 9.5 mg/dL
  K: 4.2 meq/L
  LDH: 140.8 IU/L
  Na: 139.8 meq/L
  PL: 157 mg/dL
  RALB: 3.5 g/dL
  TBIL: 0.2 mg/dL
  TC: 89 mg/dL
  TG: 51.8 mg/dL
  TP: 5.6 g/dL
  gamma-GTP: 1 IU/L
[3]
  TERMINAL_BW: 204.9 g
  APTT: 18.4 s
  Bas: 0%
  Eos: 1%
  Fbg: 209.2 mg/dL
  Hb: 13.4 g/dL
  Ht: 39.4%
  Lym: 76.8%
  MCH: 21.6 pg
  MCHC: 34.2%
  MCV: 63.3 fL
  Mono: 2.8%
  Neu: 18.6%
  PT: 13.2 s
  Plat: 128.5 x10_4/uL
  RBC: 621.8 x10_4/ul
  Ret: 7.7%
  WBC: 92.7 x10_2/uL
  KIDNEY_L: 1 g
  KIDNEY_R: 1 g
  KIDNEY_TOTAL: 1.9 g
  LIVER: 8.3 g
  A/G: 1.6
  ALP: 866.2 IU/L
  ALT: 32.6 IU/L
  AST: 63.4 IU/L
  BUN: 10.4 mg/dL
  CRE: 0.3 mg/dL
  Ca: 10.1 mg/dL
  Cl: 103.4 meq/L
  DBIL: 0.072 mg/dL
  GLC: 204.6 mg/dL
  IP: 10.8 mg/dL
  K: 3.7 meq/L
  LDH: 146.2 IU/L
  Na: 141.4 meq/L
  PL: 126.8 mg/dL
  RALB: 3.3 g/dL
  TBIL: 0.1 mg/dL
  TC: 68.6 mg/dL
  TG: 43 mg/dL
  TP: 5.3 g/dL
  gamma-GTP: 0.8 IU/L
[4]
  TERMINAL_BW: 219.3 g
  APTT: 17.7 s
  Bas: 0%
  Eos: 1%
  Fbg: 206.4 mg/dL
  Hb: 13.4 g/dL
  Ht: 40.4%
  Lym: 82.2%
  MCH: 21.8 pg
  MCHC: 33.3%
  MCV: 65.7 fL
  Mono: 3.2%
  Neu: 13.4%
  PT: 12.6 s
  Plat: 126.3 x10_4/uL
  RBC: 615.6 x10_4/ul
  Ret: 7.7%
  WBC: 97.9 x10_2/uL
  KIDNEY_L: 0.9 g
  KIDNEY_R: 1 g
  KIDNEY_TOTAL: 1.9 g
  LIVER: 10.2 g
  A/G: 1.7
  ALP: 878.8 IU/L
  ALT: 39.8 IU/L
  AST: 68 IU/L
  BUN: 14.2 mg/dL
  CRE: 0.4 mg/dL
  Ca: 10.3 mg/dL
  Cl: 103.2 meq/L
  DBIL: 0.084 mg/dL
  GLC: 212 mg/dL
  IP: 7.1 mg/dL
  K: 3.7 meq/L
  LDH: 136.2 IU/L
  Na: 140.6 meq/L
  PL: 135.2 mg/dL
  RALB: 3.3 g/dL
  TBIL: 0.1 mg/dL
  TC: 77.4 mg/dL
  TG: 62.6 mg/dL
  TP: 5.4 g/dL
  gamma-GTP: 0.8 IU/L
15 mg/kg, 3 h, dose level Low
  TERMINAL_BW: 209 g
  APTT: 19 s
  Bas: 0%
  Eos: 0.8%
  Fbg: 219.6 mg/dL
  Hb: 13.5 g/dL
  Ht: 39.7%
  Lym: 80%
  MCH: 22 pg
  MCHC: 33.9%
  MCV: 64.6 fL
  Mono: 3%
  Neu: 14.6%
  PT: 12.6 s
  Plat: 128.6 x10_4/uL
  RBC: 615.6 x10_4/ul
  Ret: 7.5%
  WBC: 110 x10_2/uL
  KIDNEY_L: 0.9 g
  KIDNEY_R: 0.9 g
  KIDNEY_TOTAL: 1.8 g
  LIVER: 9.3 g
  A/G: 1.7
  ALP: 1106 IU/L
  ALT: 39 IU/L
  AST: 69.6 IU/L
  BUN: 12 mg/dL
  CRE: 0.4 mg/dL
  Ca: 11 mg/dL
  Cl: 103 meq/L
  DBIL: 0.2 mg/dL
  GLC: 212.6 mg/dL
  IP: 9.8 mg/dL
  K: 3.7 meq/L
  LDH: 187.2 IU/L
  Na: 140.4 meq/L
  PL: 177.2 mg/dL
  RALB: 3.5 g/dL
  TBIL: 0.3 mg/dL
  TC: 87.8 mg/dL
  TG: 127 mg/dL
  TP: 5.6 g/dL
  gamma-GTP: 1.2 IU/L
15 mg/kg, 6 h, dose level Low
  TERMINAL_BW: 207.2 g
  APTT: 19.3 s
  Bas: 0%
  Eos: 0.8%
  Fbg: 228.6 mg/dL
  Hb: 13.3 g/dL
  Ht: 39.1%
  Lym: 78.2%
  MCH: 21.8 pg
  MCHC: 34%
  MCV: 63.9 fL
  Mono: 3.6%
  Neu: 16.8%
  PT: 12.7 s
  Plat: 126.9 x10_4/uL
  RBC: 611.2 x10_4/ul
  Ret: 7.5%
  WBC: 103.4 x10_2/uL
  KIDNEY_L: 0.9 g
  KIDNEY_R: 0.9 g
  KIDNEY_TOTAL: 1.8 g
  LIVER: 9.3 g
  A/G: 1.7
  ALP: 1000.8 IU/L
  ALT: 37 IU/L
  AST: 69.6 IU/L
  BUN: 8.8 mg/dL
  CRE: 0.3 mg/dL
  Ca: 10.6 mg/dL
  Cl: 103.2 meq/L
  DBIL: 0.1 mg/dL
  GLC: 194.8 mg/dL
  IP: 9.7 mg/dL
  K: 4 meq/L
  LDH: 154 IU/L
  Na: 140 meq/L
  PL: 159.2 mg/dL
  RALB: 3.5 g/dL
  TBIL: 0.2 mg/dL
  TC: 88.2 mg/dL
  TG: 53.8 mg/dL
  TP: 5.6 g/dL
  gamma-GTP: 1.2 IU/L
15 mg/kg, 9 h, dose level Low
  TERMINAL_BW: 204.9 g
  APTT: 18 s
  Bas: 0%
  Eos: 1%
  Fbg: 213.6 mg/dL
  Hb: 13.6 g/dL
  Ht: 39.8%
  Lym: 77.2%
  MCH: 21.8 pg
  MCHC: 34.2%
  MCV: 63.6 fL
  Mono: 3.6%
  Neu: 17.6%
  PT: 13 s
  Plat: 121.6 x10_4/uL
  RBC: 624.8 x10_4/ul
  Ret: 7.7%
  WBC: 91.2 x10_2/uL
  KIDNEY_L: 0.9 g
  KIDNEY_R: 0.9 g
  KIDNEY_TOTAL: 1.9 g
  LIVER: 8.4 g
  A/G: 1.6
  ALP: 967.8 IU/L
  ALT: 31.8 IU/L
  AST: 62.2 IU/L
  BUN: 10.6 mg/dL
  CRE: 0.3 mg/dL
  Ca: 10.3 mg/dL
  Cl: 103.8 meq/L
  DBIL: 0.082 mg/dL
  GLC: 207.8 mg/dL
  IP: 9.8 mg/dL
  K: 3.7 meq/L
  LDH: 182.2 IU/L
  Na: 141.8 meq/L
  PL: 131.4 mg/dL
  RALB: 3.4 g/dL
  TBIL: 0.1 mg/dL
  TC: 69.8 mg/dL
  TG: 45.4 mg/dL
  TP: 5.6 g/dL
  gamma-GTP: 0.8 IU/L
15 mg/kg, 24 h, dose level Low
  TERMINAL_BW: 218.9 g
  APTT: 17.6 s
  Bas: 0%
  Eos: 1%
  Fbg: 212 mg/dL
  Hb: 13.6 g/dL
  Ht: 40.3%
  Lym: 78.6%
  MCH: 22 pg
  MCHC: 33.8%
  MCV: 64.9 fL
  Mono: 3.8%
  Neu: 16%
  PT: 12.5 s
  Plat: 125.4 x10_4/uL
  RBC: 621.2 x10_4/ul
  Ret: 6.6%
  WBC: 79.6 x10_2/uL
  KIDNEY_L: 0.9 g
  KIDNEY_R: 1 g
  KIDNEY_TOTAL: 1.9 g
  LIVER: 10.7 g
  A/G: 1.7
  ALP: 981 IU/L
  ALT: 39 IU/L
  AST: 72.2 IU/L
  BUN: 13.8 mg/dL
  CRE: 0.4 mg/dL
  Ca: 10.4 mg/dL
  Cl: 104.6 meq/L
  DBIL: 0.094 mg/dL
  GLC: 205.6 mg/dL
  IP: 7.1 mg/dL
  K: 3.8 meq/L
  LDH: 155.2 IU/L
  Na: 141.8 meq/L
  PL: 146 mg/dL
  RALB: 3.5 g/dL
  TBIL: 0.2 mg/dL
  TC: 81.2 mg/dL
  TG: 83.4 mg/dL
  TP: 5.5 g/dL
  gamma-GTP: 1 IU/L
